Structures are written as SMILES.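 Cultured in 96-well plates, cells were exposed to test compound for 48 hours across five concentrations. TGI is the concentration that stops growth completely.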

Among the test systems are HCT-116 colon; LOX IMVI melanoma; MALME-3M melanoma; MDA-MB-231 breast; MDA-N; OVCAR-4 ovarian; OVCAR-5 ovarian; SF-268 CNS; SK-MEL-28 melanoma.
Common to all, as to experiment: DTP human tumour cell line panel, 48 h

A word on the TGI: it is the concentration at which net growth stops. Low readings indicate more potent growth arrest, high ones less potent growth arrest. Take `Cc1nc(-c2ccc(N=Cc3ccc(N(CCOS(C)(=O)=O)CCOS(C)(=O)=O)cc3C)cc2)cs1`: the TGI in the experiment on HCT-116 colon, in the experiment with LOX IMVI melanoma, in the experiment on MALME-3M melanoma, with MDA-MB-231 breast, in the experiment on MDA-N and in the experiment with OVCAR-4 ovarian was above 100 µM each time. Moreover, the TGI in the experiment with OVCAR-5 ovarian is above 100 µM; in the experiment on SF-268 CNS, 40.2 µM; in the experiment with SK-MEL-28 melanoma, above 100 µM.
Regarding `CCN(CC)Cc1sc2nc3ccccc3n2c1-c1ccc(OC)cc1`, the TGI in the experiment on HCT-116 colon was above 100 µM; with LOX IMVI melanoma, above 100 µM; in the experiment with MALME-3M melanoma it was above 100 µM; in the experiment on MDA-MB-231 breast, above 100 µM; in the experiment on MDA-N it was 7.02 µM; with OVCAR-4 ovarian, above 100 µM. Besides, the concentration for total growth inhibition (TGI) in the experiment on OVCAR-5 ovarian, with SF-268 CNS and with SK-MEL-28 melanoma was above 100 µM throughout.
As to `COc1nc(N)c(N=CC(OC(C)=O)C(OC(C)=O)C(COC(C)=O)OC(C)=O)c(=O)n1C` (stereo unspecified), the total growth inhibition concentration (TGI) in the experiment with HCT-116 colon, in the experiment with LOX IMVI melanoma, in the experiment with MALME-3M melanoma, in the experiment with MDA-MB-231 breast, with MDA-N and in the experiment with OVCAR-4 ovarian was above 100 µM throughout. In addition, the concentration for total growth inhibition (TGI) in the experiment on OVCAR-5 ovarian, in the experiment with SF-268 CNS and in the experiment with SK-MEL-28 melanoma was above 100 µM throughout.
On to `CC(C)(C)c1cc(C2COC(c3cc(C(C)(C)C)c(O)c(C(C)(C)C)c3)CO2)cc(C(C)(C)C)c1O` (stereo unspecified), for which the TGI with HCT-116 colon, in the experiment with LOX IMVI melanoma, with MALME-3M melanoma, in the experiment with MDA-MB-231 breast, in the experiment with MDA-N and in the experiment with OVCAR-4 ovarian was above 100 µM each time. The TGI in the experiment on OVCAR-5 ovarian, in the experiment with SF-268 CNS and with SK-MEL-28 melanoma was above 100 µM each time.
`Cc1ccc(/C(O)=C/C(=O)C(=O)NN=C(c2ccccc2)c2ccccc2)cc1`: the TGI in the experiment on HCT-116 colon, in the experiment with LOX IMVI melanoma, with MALME-3M melanoma, in the experiment with MDA-MB-231 breast, in the experiment on MDA-N and in the experiment on OVCAR-4 ovarian was above 100 µM in each case. For the same compound, the TGI in the experiment with OVCAR-5 ovarian, with SF-268 CNS and with SK-MEL-28 melanoma was above 100 µM in each case.
Consider `CCOc1cc(NC(C)=O)ccc1C(=O)NN1C(=O)C(Cl)C1c1ccco1` (stereo unspecified), for which the TGI in the experiment on HCT-116 colon was 49.3 µM; in the experiment with LOX IMVI melanoma, 13.1 µM; with MALME-3M melanoma, 24.6 µM; in the experiment with MDA-MB-231 breast it was 31.1 µM; in the experiment with MDA-N, 36.1 µM; in the experiment with OVCAR-4 ovarian, 33.3 µM. The TGI in the experiment on OVCAR-5 ovarian came to 36.4 µM; in the experiment on SF-268 CNS, 35.1 µM; with SK-MEL-28 melanoma, 63.5 µM.
Regarding `C[C@H]1C=C2[C@@H]3CC(C)(C(=O)O)CC[C@]3(C)CC[C@]2(C)[C@]2(C)CC[C@H]3C(C)(C)[C@@H](OC(=O)c4cccc5c(=O)c6ccccc6[nH]c45)CC[C@]3(C)[C@@H]12` (stereo partly specified), the TGI with HCT-116 colon, with LOX IMVI melanoma, in the experiment with MALME-3M melanoma, with MDA-MB-231 breast, in the experiment on MDA-N and in the experiment with OVCAR-4 ovarian was above 100 µM each time. Also, the TGI in the experiment with OVCAR-5 ovarian, with SF-268 CNS and in the experiment on SK-MEL-28 melanoma was above 100 µM each time.
Regarding `COc1cc(C(c2ccc3c(c2)OCO3)N2C(=O)CCC2C(=O)O)cc(OC)c1OC` (stereo unspecified), the TGI in the experiment with HCT-116 colon, in the experiment with LOX IMVI melanoma, in the experiment with MALME-3M melanoma, with MDA-MB-231 breast, in the experiment on MDA-N and with OVCAR-4 ovarian was above 100 µM each time. Further, the TGI in the experiment with OVCAR-5 ovarian, with SF-268 CNS and in the experiment on SK-MEL-28 melanoma was above 100 µM throughout.
In the case of `OC(c1ccc(-c2ccccc2)cc1)C(F)(F)c1nc2ccccc2o1` (stereo unspecified), the TGI in the experiment with HCT-116 colon was above 100 µM; in the experiment with LOX IMVI melanoma it was above 100 µM; with MALME-3M melanoma, above 100 µM; in the experiment with MDA-MB-231 breast it was above 96.6 µM; in the experiment with MDA-N, above 100 µM; in the experiment with OVCAR-4 ovarian, 50.4 µM. The TGI with OVCAR-5 ovarian, in the experiment with SF-268 CNS and in the experiment with SK-MEL-28 melanoma was above 100 µM in each case.
For the compound `CN(C)CCCN1c2ccccc2CCc2ccc([N+](=O)[O-])cc21`, the TGI with HCT-116 colon was above 100 µM; with LOX IMVI melanoma it was 31.5 µM; with MALME-3M melanoma, 35.2 µM; in the experiment on MDA-MB-231 breast, above 100 µM; in the experiment with MDA-N, 40.9 µM; with OVCAR-4 ovarian, above 100 µM. The TGI was above 100 µM in the experiment on OVCAR-5 ovarian, above 100 µM with SF-268 CNS and 77.9 µM in the experiment on SK-MEL-28 melanoma.
For `Cc1ccc2c(=O)cc(-c3ccc(-c4ccccc4)s3)[nH]c2n1`, the TGI with HCT-116 colon was above 100 µM; in the experiment on LOX IMVI melanoma, above 100 µM; in the experiment with MALME-3M melanoma, above 81.1 µM; in the experiment with MDA-MB-231 breast, above 100 µM; in the experiment on MDA-N, above 100 µM; in the experiment on OVCAR-4 ovarian, above 100 µM. Moreover, the TGI in the experiment with OVCAR-5 ovarian, in the experiment with SF-268 CNS and in the experiment with SK-MEL-28 melanoma was above 100 µM throughout.
Turning to `COc1ccc(C(=O)c2[nH]c(Nc3ccc(Cl)cc3)c(C(=S)Nc3ccccc3)c2N)cc1`, the concentration for total growth inhibition (TGI) was above 100 µM with HCT-116 colon; above 100 µM in the experiment with LOX IMVI melanoma; above 100 µM in the experiment on MALME-3M melanoma; above 100 µM in the experiment with MDA-MB-231 breast; above 100 µM in the experiment on MDA-N; 93.6 µM with OVCAR-4 ovarian. Moreover, the results for the TGI in the experiment on OVCAR-5 ovarian, in the experiment on SF-268 CNS and in the experiment with SK-MEL-28 melanoma were above 100 µM, above 100 µM and 87 µM, respectively.
`O=[As](O)(O)c1ccc(N=Nc2ccc(O)cc2)cc1`: the TGI with HCT-116 colon, in the experiment with LOX IMVI melanoma, in the experiment with MALME-3M melanoma, in the experiment on MDA-MB-231 breast, in the experiment with MDA-N and with OVCAR-4 ovarian was above 100 µM in each case. Besides, the TGI in the experiment on OVCAR-5 ovarian, in the experiment on SF-268 CNS and in the experiment on SK-MEL-28 melanoma was above 100 µM throughout.
On to `COc1cccc(N2C(=O)C3c4[nH]c5ccc(C)cc5c4C4CCC(C(C)(C)C)CC4C3C2=O)c1` (stereo unspecified), for which the concentration for total growth inhibition (TGI) with HCT-116 colon is 4.75 µM; in the experiment with LOX IMVI melanoma, 3.98 µM; in the experiment on MALME-3M melanoma it was above 10 µM; in the experiment on MDA-MB-231 breast it was above 10 µM; with MDA-N, above 10 µM; in the experiment with OVCAR-4 ovarian it was above 10 µM. Moreover, the TGI with OVCAR-5 ovarian was 7.81 µM; in the experiment with SF-268 CNS, above 10 µM; with SK-MEL-28 melanoma, above 10 µM.

The record behind these values is PubChem BioAssay (NCI).
